This assay concerns the target T1, human NMUR2 (Homo sapiens, UniProt Q9GZQ4).
T1 construct: expressed in transfected cells; host or cells: FLP-In CHO cells and HEK-293 FLP-In cells (pcDNA5)
Put plainly: FLIPR calcium mobilization assay, human NMUR2-expressing cell line. The class given is cell-based. The source says: Human, mouse or rat cDNAs encoding NMUR1 or NMUR2 (as described in Howard et al. Nature 406: 70-74 (2000) were subcloned in pcDNA5 (Invitrogen) and transfected into FLP-In CHO cells and HEK-293 FLP-In cells purchased from Invitrogen (Carlsbad, Calif.) using lipofectamine (Invitrogen). The Flp-In system allows integration and expression of a particular gene of interest at a specific genomic location utilizing the Flp recombinase from yeast. The transfected cells were selected by growth in medium containing 200 μg/mL hygromycin (Invitrogen). Populations were frozen at early passage numbers, and these stocks were used for further studies. Stable clones that expressed the mRNAs were identified functionally by FLIPR as well as by RT-PCR. […] Two different rodent NMUR1 cell lines were thus generated: one with the codon as predicted from the genomic databases and another cell line with an engineered methionine (ATG) as the start codon. The dog NMU receptors were also cloned from intestine RNA (NMUR1) and brain (NMUR2) and stable cell lines were generated as used for the human and rodent cell lines. […] To ensure high levels of expression in a heterologous system, a dog NMUR1 cell line was generated that contains an ATG as the start codon. Additionally, stable cell lines expressing the human receptors were generated in HEK-293/aeq 17 cells which stably express the aequorin gene under the CMV promoter. The human NMUR2 cDNA was cloned into pcDNA3.1 and human NMUR1 was subcloned into pIRES-puro (Clontech, Mountain View, Calif.), after transfection cells were selected in media containing G418 and either hygromycin (NMUR2) or puromycin (NMUR1).
The NMU receptors signal primarily through Gαq/11 proteins; therefore calcium mobilization assays can be utilized for functional activity.
Stable cell lines expressing human and or rodent NMUR1 or human NMUR2 receptors are plated at a density of 12,000 cells per well overnight on poly-lysine coated 384-well black-walled plates. The following day, the media is removed from the plates and the cells were subsequently loaded with Fluo-3 (Molecular Probes), a calcium sensitive dye, diluted in FLIPR buffer (1× Hank's buffered saline containing 20 mM HEPES, 0.1% BSA, 2.5 mM probenecid (Sigma) and 1.6 mM TR40). All reagents are from Invitrogen unless otherwise noted. Peptide stocks are resuspended in DMSO at a stock concentration of 2 mM and diluted in FLIPR buffer on the day of the experiment to a 4 μM working stock solution.
After a 90 minute incubation at room-temperature, cell plates are loaded onto a FLIPR (Molecular Devices) to monitor cellular fluorescence (excitation=488 nm; emission=540 nm) before and after compound/peptide addition. Eight to twelve point dose responses are tested on NMUR-expressing cell lines using FLIPR with 1 μM peptide as the highest dose. The response after peptide addition is taken as the maximum fluorescence units minus the fluorescence immediately prior to stimulation for each well. EC50 values are calculated using GraphPad Prism (San Diego, Calif.) software.
Percent activity refers to the maximum response at 1 μM compared to the human NMU-25 response at the same concentration.

Results on one substance are retold here after patent US20110301079A1, “NEUROMEDIN U RECEPTOR AGONISTS AND USES THEREOF” (Instituto di Ricerche di Biologia Molecolare P. Angeletti …, priority 2007, published 2011).

T1 sequence (Q9GZQ4 whole entry): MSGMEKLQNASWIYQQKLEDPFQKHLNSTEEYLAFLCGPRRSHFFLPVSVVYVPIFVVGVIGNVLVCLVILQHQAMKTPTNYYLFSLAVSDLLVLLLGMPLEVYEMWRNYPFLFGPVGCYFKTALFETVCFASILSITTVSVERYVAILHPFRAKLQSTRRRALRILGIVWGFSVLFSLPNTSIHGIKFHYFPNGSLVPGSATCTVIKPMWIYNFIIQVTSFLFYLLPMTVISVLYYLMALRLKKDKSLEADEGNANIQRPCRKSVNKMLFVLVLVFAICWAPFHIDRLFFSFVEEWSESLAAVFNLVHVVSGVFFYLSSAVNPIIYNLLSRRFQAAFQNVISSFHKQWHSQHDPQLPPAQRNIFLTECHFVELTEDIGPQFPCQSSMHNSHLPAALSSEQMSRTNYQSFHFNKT

As to “H-ILQRGSGTAAVDFTKKDHTATWGRPFFLFRPRN-NH2 [NMS, reference compound]”, the EC50 (human NMUR2, FLIPR) was found to be 0.0126 µM. In addition, the “% Activity” value (human NMUR2, maximum response at 1 μM compared to the human NMU-25 response at the same concentration) came out at 107%.

A word on the EC50: it is the concentration giving half of the maximal effect.
